# Data reported in patent publication US10226509B2, “Lymphangiogenesis inhibitors for cancer and for graft survival” (TUFTS UNIVERSITY, priority 2014, dated 2019).
# How the values were obtained:
# PDPN = assay: Cell surface expression of PDPN by flow cytometry; format: cell-based, human; conditions: 30 min post-treatment; Gal-8 0.2 μM
# Procedure: (§1) Primary LECs were serum-starved overnight in basal EBM-2 medium. The cells were incubated with or without VEGF-C (50 ng/ml, PeproTech) or Gal-8 (0.2 μM) in serum-free EBM-2 medium for 10 and 30 min. At the end of the incubation period, cells were lifted with StemPro® Accutase® cell dissociation reagent (Invitrogen), washed with PBS and fixed with 4% paraformaldehyde/PBS on ice for 10 min, and were then stained using rat anti-human PDPN (1:500, BioLegend) and mouse anti-human VEGFR-3 (clone 9D9F9) (1:100, BioLegend) primary antibodies in cell staining buffer (BioLegend, 45 min on ice) and Alexa Fluor® 488 donkey anti-rat and Alexa Fluor® 647 anti-mouse secondary antibodies (1:1000, Invitrogen, 30 min on ice). For negative control, the primary antibodies were omitted. The stained cells were fixed with 2% paraformaldehyde/PBS, analyzed with BD FACSCalibur, and the mean fluorescence intensity of VEGFR-3 and PDPN were quantified with the FlowJo software (version 9.5.2).
# VEGF-C = target: T1, VEGF-C (Homo sapiens, UniProt P49767); assay: Affinity precipitation assay, VEGF-C; format: binding; conditions: galectin-conjugated agarose beads
# T1 construct: Primary LECs were incubated with agarose beads (control), and galectin-conjugated agarose beads at 4° C. overnight; endogenous in cells; host or cells: primary lymphatic endothelial cells (LECs)
# T1 sequence (P49767 112-227): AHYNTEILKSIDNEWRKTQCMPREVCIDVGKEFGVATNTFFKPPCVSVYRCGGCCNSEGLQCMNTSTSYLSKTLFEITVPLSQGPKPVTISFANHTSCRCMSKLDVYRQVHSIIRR
# mouse corneas = assay: Corneal mouse micropocket lymphangiogenesis assay; format: in vivo; conditions: for mean lymphatic vessel areas: 160 ng pellet, seven days
# Procedure: The corneal micropocket lymphangiogenesis assay was performed using implants containing a test agent, hydron (polyhydroxylmethylmethacrylate), and sucralfate (Cao, R., et al. 2011. Nat Protoc 6:817-826; Rogers, M. S., et al. 2007. Nat Protoc 2:2545-2550). Test agents included full-length Gal-8 (40-320 ng/pellet) and VEGF-C (160 ng/pellet). Implants containing hydron and sucralfate alone served as negative controls. The mice were anesthetized by intraperitoneal injection of a mixture of ketamine (90-120 mg/kg) and xylazine (10 mg/kg). The eyes were topically anesthetized with proparacaine and were gently proptosed (forwardly displaced) with forceps. Using a corneal blade and a stereoscope, intrastromal linear keratotomy was performed about 2 mm from the limbus. Using a von Graefe knife (Miltex), a pocket was extended towards the limbus, and the pellet was maneuvered into the pocket. The wound was coated with a veterinary ophthalmic ointment (Akorn) to prevent infection. Mouse corneas were harvested 7 days after pellet implantation, fixed in 4% paraformaldehyde/PBS (1 hour at 4° C.), washed with PBS, and fixed again in iced acetone (15 min at −20° C.). To quantitate the extent of lymphangiogenesis in Prox-1-EGFP reporter mice, flat mounts of the dissected corneas were evaluated by fluorescence microscopy. Fluorescent images were acquired by EVOS FL cell imaging system (Invitrogen), and vessel areas were calculated using the formula (Rogers, M. S., et al. 2007. Nat Protoc 2:2545-2550): vessel area=pellet distance×vessel length×clock hours×[…]. To quantitate the extent of lymphangiogenesis in WT and PDPN-deficient mice, corneas were stained with eFluor 570-anti-mouse LYVE-1 (clone ALY7, eBioScience, and 1:75) in 10% goat serum/0.2% Triton X-100/PBS overnight, 4° C. After several washes with 0.2% Triton X-100/PBS, the corneas were flattened and mounted with VECTASHIELD mounting medium (Vector Laboratories) and evaluated by fluorescence microscopy. In some examples, for comparisons, corneas were stained with Alexa Fluor® 488-anti-mouse CD31 (clone MEC13.3, 1:100, BioLegend) to visualize blood vessels.
# VEGFR-3 = assay: Cell surface expression of VEGFR-3 by flow cytometry; format: cell-based, human; conditions: Gal-8 0.2 μM or VEGF-C 50 ng/ml
# Procedure: as §1
# ERK1/2 = assay: Western blot of ERK activation in primary LECs; format: cell-based, human; conditions: 0.5 μM for 0 to 60 minutes or 0 to 0.5 μM for 30 minutes
# Procedure: Primary LECs were lysed with Triton lysis buffer supplemented with protease inhibitor cocktail and Phos-STOP phosphatase inhibitor cocktail (Roche), and subjected to electrophoresis in 4-15% SDS-PAGE gels (Bio-Rad). Protein blots of the gels were blocked with 0.5×Odyssey® blocking buffer (OBB, Li-COR). For AKT and ERK signaling, blots were incubated with primary antibodies (rabbit anti-ERK1/2, 1:7500, Cell Signaling Technology; mouse anti-phospho-ERK1/2, Thr202/Tyr204, 1:2000, Cell Signaling Technology; mouse anti-AKT1/2/3, 1:2000, Cell Signaling Technology; rabbit anti-phospho-AKT, Ser473, 1:1500, Cell Signaling Technology) overnight at 4° C. Blots were washed with 0.5% Tween-20/PBS three times, and were incubated with appropriate secondary antibodies (donkey anti-rabbit IRDye 680LT and anti-mouse IRDye 800CW, Li-Cor) for 45 min at 25° C. The blots were scanned by an Odyssey® Infrared Imaging System using Image Studio v2.0 software (Li-COR). […] Signals were detected by Odyssey® Infrared Imaging System. […]
substance,measurement,setting,value
"Gal-8: recombinant galectin-8, tandem-repeat type galectin with two different CRDs",increase of cell surface expression of PDPN,PDPN,about 30%
same,binding to VEGF-C (in words),VEGF-C,does not interact with VEGF-C
same,mean lymphatic vessel areas,mouse corneas; PDPN KO mice,0.28 mm^2
same,mean lymphatic vessel areas,mouse corneas; WT mice,0.78 mm^2
same,"lymphatic vessel growth, times higher than either VEGF-C pellet or Gal-8 pellet alone",mouse corneas; corneas implanted with both VEGF-C and Gal-8 pellets,2.2 times
same,lymphangiogenesis induced by pellet in cornea (in words),"mouse corneas; one week after implantation, Gal-8 40-320 ng/pellet, VEGF-C 160 ng, WT or Prox1-EGFP mice",increased in a dose-dependent manner
same,effect of Gal-8 pellet on VEGF-C-induced lymphangiogenesis in vivo (in words),"mouse corneas; two separate pellets (VEGF-C and Gal-8), Prox1-EGFP reporter mice, one week",augmented VEGF-C-induced lymphangiogenesis
same,decrease of cell surface expression of VEGFR-3,VEGFR-3,about 10%
same,phosphorylation of ERK1/2 (in words),ERK1/2,induced phosphorylation of AKT and ERK1/2 in time- and dose-dependent manner
